The structures appear in SMILES notation. The source made the active and inactive calls. No cut-off for these calls is given here.

Data set [1] can be described thus: Binding affinity to human ACC1 promoter1 G-quadraduplex DNA.
Data set [2] can be described thus: Binding affinity to human ACC1 promoter2 G-quadraduplex DNA.
In data set [3] the test system is HeLa. In words: Binding affinity to human ACC1 promoter G-quadraduplex DNA transfected in human HeLa cells assessed as suppression of ACC1 gene expression after 24 hrs by qRT-PCR method. The format is cell-based. In general terms: In qPCR the cycle at which signal appears reflects the starting amount.
The test system of data set [4] is HeLa. Description: Effect on GAPDH gene expression in human HeLa cells at 5 to 20 uM after 24 hrs by qRT-PCR method. In kind it is ADME, cell-based.
The species entered for data set [5] is Homo sapiens. In words: Binding affinity to human ACC1 promoter2 G-quadraduplex DNA assessed as hyperchromic shift at 5 uM by UV-vis absorption spectroscopy.
For data set [6], the system named is HeLa. In words: Binding affinity to human wild type ACC1 promoter1 G-quadraduplex DNA transfected in human HeLa cells assessed as suppression of ACC1 gene expression after 24 hrs by dual luciferase reporter assay. The format is cell-based. In general terms: Reporter assays use an easily measured gene product as a stand-in for the process of interest.
Data set [7] is filed under the species Homo sapiens. Description: Binding affinity to human ACC1 promoter2 G-quadraduplex DNA assessed as decrease in fluorescence emission intensity by fluorescence emission spectroscopy.
The species named for data set [8] is Homo sapiens. In words: Binding affinity to human ACC1 promoter1 G-quadraduplex DNA mutant assessed as inhibition of Taq-polymerase catalyzed primer extension preincubated for 1 hr followed by addition of Taq-polymerase measured after 30 mins by Taq-polymerase stop assay.
The species named for data set [9] is Homo sapiens. Description: Binding affinity to human ACC1 promoter1 G-quadraduplex DNA assessed as inhibition of Taq-polymerase catalyzed primer extension preincubated for 1 hr followed by addition of Taq-polymerase measured after 30 mins by Taq-polymerase stop assay.
The species named for data set [10] is Homo sapiens. Description: Binding affinity to human ACC1 promoter2 G-quadraduplex DNA assessed as bathochromic red shift at 5 uM by UV-vis absorption spectroscopy.
Data set [11] is filed under the species Homo sapiens. In words: Binding affinity to human ACC1 promoter1 G-quadraduplex DNA at 5 uM by UV-vis absorption spectroscopy.
The species entered for data set [12] is Homo sapiens. In words: Binding affinity to human ACC1 promoter2 G-quadraduplex DNA assessed as apparent isosbestic point at 5 uM by UV-vis absorption spectroscopy.
The subject of data set [13] is HeLa. Description: Binding affinity to human wild type ACC1 promoter2 G-quadraduplex DNA transfected in human HeLa cells assessed as suppression of ACC1 gene expression at 0.1 to 25 uM after 24 hrs by dual luciferase reporter assay relative to control. The format is cell-based.
The test system of data set [14] is HeLa. In words: Binding affinity to human wild type ACC1 promoter1 G-quadraduplex DNA transfected in human HeLa cells assessed as suppression of ACC1 gene expression at 0.1 to 25 uM after 24 hrs by dual luciferase reporter assay relative to control. The format is cell-based.
The species named for data set [15] is Homo sapiens. In words: Binding affinity to human ACC1 promoter2 G-quadraduplex DNA assessed as inhibition of Taq-polymerase catalyzed primer extension preincubated for 1 hr followed by addition of Taq-polymerase measured after 30 mins in presence of KCl by Taq-polymerase stop assay.
Data set [16] is filed under the species Homo sapiens. Description: Binding affinity to human ACC1 promoter2 G-quadraduplex DNA mutant assessed as inhibition of Taq-polymerase catalyzed primer extension preincubated for 1 hr followed by addition of Taq-polymerase measured after 30 mins in presence of KCl by Taq-polymerase stop assay.
Data set [17] relates to HeLa. Description: Binding affinity to human wild type ACC1 promoter2 G-quadraduplex DNA transfected in human HeLa cells assessed as suppression of ACC1 gene expression after 24 hrs by dual luciferase reporter assay. The format is cell-based.
For data set [18], the species on record is Homo sapiens. Description: Binding affinity to human ACC1 promoter1 G-quadraduplex DNA assessed as decrease in fluorescence emission intensity by fluorescence emission spectroscopy.

One may read the Kd as a measure of binding affinity in units of concentration. A low value points to higher affinity. Take `C[n+]1ccc(-c2c3nc(c(-c4cc[n+](C)cc4)c4ccc([nH]4)c(-c4cc[n+](C)cc4)c4nc(c(-c5cc[n+](C)cc5)c5ccc2[nH]5)C=C4)C=C3)cc1`: the Kd in data set [1] and in data set [2] was 0.07 µM in each case.

The inhibition is the percentage by which the read-out fell short of the control. Turning to `c1cc2c(cc1-c1nc3cc(N4CCOCC4)ccc3[nH]1)c1cc(-c3nc4cc(N5CCOCC5)ccc4[nH]3)ccc1n2CCCCN1CCOCC1`, in the data set on HeLa [3], the inhibition result is “Dose-dependent effect”. The Activity result in the data set with HeLa [4] was “Non-toxic”.

Consider `C[n+]1ccc(-c2c3nc(c(-c4cc[n+](C)cc4)c4ccc([nH]4)c(-c4cc[n+](C)cc4)c4ccc([nH]4)c(-c4cc[n+](C)cc4)c4nc2C=C4)C=C3)cc1`, for which the result in the data set filed under Homo sapiens [5], in the data set filed under Homo sapiens [7], in the data set filed under Homo sapiens [11] and in the data set filed under Homo sapiens [18] was Active. In addition, the inhibition result with HeLa [6] is “Dose-dependent effect”; in the data set listed under Homo sapiens [9], “Dose-dependent effect”; with HeLa [13], 84%; in the data set with HeLa [14], 67%; in the data set listed under Homo sapiens [15], “Dose-dependent effect”; in the data set with HeLa [17] it was “Dose-dependent effect”. Moreover, the inhibition result in the data set listed under Homo sapiens [8] is “inactive”. The Activity in the data set filed under Homo sapiens [10] was found to be 18 nm; in the data set listed under Homo sapiens [12], 432 nm. The inhibition result in the data set listed under Homo sapiens [16] is “Active”.

The values are drawn from ChEMBL document CHEMBL3826977, “Discovery and Structural Characterization of G-quadruplex DNA in Human Acetyl-CoA Carboxylase Gene Promoters: Its Role in Transcriptional Regulation and as a Therapeutic Target for Human Disease” (J Med Chem, 2016).
